# According to ChEMBL document CHEMBL3885881, “DrugMatrix”:
# Organism: Rattus norvegicus
# Assay: DrugMatrix - Regimen: Daily Repeat
# Format: toxicity, organism-based, Sprague-Dawley
# Parameters: regimen Daily Repeat, gender Male, age 6-8 weeks
# Conditions: in vivo, po, route oral GAVAGE, vehicle .5 % CMC; for BASOPHIL / EOSINOPHIL / ERYTHROCYTE COUNT / HEMATOCRIT / HEMOGLOBIN / LEUKOCYTE COUNT / LYMPHOCYTE / MEAN CORPUSCULAR HEMOGLOBIN / MEAN CORPUSCULAR HEMOGLOBIN CONCENTRATION / MEAN CORPUSCULAR VOLUME / MONOCYTE / NEUTROPHIL / PLATELET COUNT: tissue Blood; for ALANINE AMINOTRANSFERASE / ALBUMIN / ALKALINE PHOSPHATASE / ASPARTATE AMINOTRANSFERASE / BLOOD UREA NITROGEN / CHLORIDE / CHOLESTEROL / CREATINE PHOSPHOKINASE / CREATININE / GLUCOSE / PHOSPHORUS / POTASSIUM / SODIUM / TOTAL PROTEIN: tissue Plasma
# [1] = 0 mg/kg, 72 h, dose level Control, time 3 day
# [2] = 0 mg/kg, 120 h, dose level Control, time 5 day
# [3] = 80 mg/kg, 72 h, dose level Low, time 3 day
# [4] = 80 mg/kg, 120 h, dose level Low, time 5 day
# [5] = 2000 mg/kg, 72 h, dose level High, time 3 day
# [6] = 2000 mg/kg, 120 h, dose level High, time 5 day
smiles,measurement,setting,value
CN(C/C=C/C#CC(C)(C)C)Cc1cccc2ccccc12 [TERBINAFINE],BASOPHIL,[1],0%
same,EOSINOPHIL,[1],0.4%
same,ERYTHROCYTE COUNT,[1],6.43 x10E6/uL
same,HEMATOCRIT,[1],37.36%
same,HEMOGLOBIN,[1],13.98 G/DL
same,LEUKOCYTE COUNT,[1],13 x10E3/uL
same,LYMPHOCYTE,[1],81.4%
same,MEAN CORPUSCULAR HEMOGLOBIN,[1],21.9 pg
same,MEAN CORPUSCULAR HEMOGLOBIN CONCENTRATION,[1],37.4 G/DL
same,MEAN CORPUSCULAR VOLUME,[1],58.52 fL
same,MONOCYTE,[1],0.4%
same,NEUTROPHIL,[1],18%
same,PLATELET COUNT,[1],1386 x10E3/uL
same,ALANINE AMINOTRANSFERASE,[1],39.33 u/L
same,ALBUMIN,[1],3.57 G/DL
same,ALKALINE PHOSPHATASE,[1],283.83 u/L
same,ASPARTATE AMINOTRANSFERASE,[1],69.5 u/L
same,BLOOD UREA NITROGEN,[1],14.83 mg/dL
same,CHLORIDE,[1],107.33 MEQ/L
same,CHOLESTEROL,[1],75.17 mg/dL
same,CREATINE PHOSPHOKINASE,[1],107.67 u/L
same,CREATININE,[1],0.48 mg/dL
same,GLUCOSE,[1],172.5 mg/dL
same,PHOSPHORUS,[1],10.48 mg/dL
same,POTASSIUM,[1],6.9 MEQ/L
same,SODIUM,[1],152.33 MEQ/L
same,TOTAL PROTEIN,[1],5.9 G/DL
same,BASOPHIL,[2],0%
same,EOSINOPHIL,[2],0.4%
same,ERYTHROCYTE COUNT,[2],6.96 x10E6/uL
same,HEMATOCRIT,[2],41.12%
same,HEMOGLOBIN,[2],15.24 G/DL
same,LEUKOCYTE COUNT,[2],11.06 x10E3/uL
same,LYMPHOCYTE,[2],88.6%
same,MEAN CORPUSCULAR HEMOGLOBIN,[2],21.96 pg
same,MEAN CORPUSCULAR HEMOGLOBIN CONCENTRATION,[2],37.1 G/DL
same,MEAN CORPUSCULAR VOLUME,[2],59.12 fL
same,MONOCYTE,[2],0.2%
same,NEUTROPHIL,[2],10.8%
same,PLATELET COUNT,[2],1155.8 x10E3/uL
same,ALANINE AMINOTRANSFERASE,[2],36.33 u/L
same,ALBUMIN,[2],3.72 G/DL
same,ALKALINE PHOSPHATASE,[2],340.33 u/L
same,ASPARTATE AMINOTRANSFERASE,[2],68.33 u/L
same,BLOOD UREA NITROGEN,[2],15 mg/dL
same,CHLORIDE,[2],108.17 MEQ/L
same,CHOLESTEROL,[2],74.67 mg/dL
same,CREATINE PHOSPHOKINASE,[2],110.67 u/L
same,CREATININE,[2],0.47 mg/dL
same,GLUCOSE,[2],171.33 mg/dL
same,PHOSPHORUS,[2],10.05 mg/dL
same,POTASSIUM,[2],6.7 MEQ/L
same,SODIUM,[2],155.5 MEQ/L
same,TOTAL PROTEIN,[2],6.33 G/DL
same,BASOPHIL,[3],0%
same,EOSINOPHIL,[3],0.33%
same,ERYTHROCYTE COUNT,[3],6.8 x10E6/uL
same,HEMATOCRIT,[3],41.03%
same,HEMOGLOBIN,[3],15.13 G/DL
same,LEUKOCYTE COUNT,[3],14.73 x10E3/uL
same,LYMPHOCYTE,[3],86.67%
same,MEAN CORPUSCULAR HEMOGLOBIN,[3],22.37 pg
same,MEAN CORPUSCULAR HEMOGLOBIN CONCENTRATION,[3],36.9 G/DL
same,MEAN CORPUSCULAR VOLUME,[3],60.57 fL
same,MONOCYTE,[3],0.33%
same,NEUTROPHIL,[3],12.67%
same,PLATELET COUNT,[3],1306.67 x10E3/uL
same,ALANINE AMINOTRANSFERASE,[3],36 u/L
same,ALBUMIN,[3],3.5 G/DL
same,ALKALINE PHOSPHATASE,[3],332 u/L
same,ASPARTATE AMINOTRANSFERASE,[3],55.67 u/L
same,BLOOD UREA NITROGEN,[3],12.67 mg/dL
same,CHLORIDE,[3],110.33 MEQ/L
same,CHOLESTEROL,[3],64 mg/dL
same,CREATINE PHOSPHOKINASE,[3],119.33 u/L
same,CREATININE,[3],0.57 mg/dL
same,GLUCOSE,[3],180.67 mg/dL
same,PHOSPHORUS,[3],10.6 mg/dL
same,POTASSIUM,[3],7.07 MEQ/L
same,SODIUM,[3],155.67 MEQ/L
same,TOTAL PROTEIN,[3],5.87 G/DL
same,BASOPHIL,[4],0%
same,EOSINOPHIL,[4],0.33%
same,ERYTHROCYTE COUNT,[4],5.98 x10E6/uL
same,HEMATOCRIT,[4],35.23%
same,HEMOGLOBIN,[4],12.83 G/DL
same,LEUKOCYTE COUNT,[4],13.7 x10E3/uL
same,LYMPHOCYTE,[4],85.33%
same,MEAN CORPUSCULAR HEMOGLOBIN,[4],21.47 pg
same,MEAN CORPUSCULAR HEMOGLOBIN CONCENTRATION,[4],36.4 G/DL
same,MEAN CORPUSCULAR VOLUME,[4],58.97 fL
same,MONOCYTE,[4],0%
same,NEUTROPHIL,[4],14%
same,PLATELET COUNT,[4],1155 x10E3/uL
same,ALANINE AMINOTRANSFERASE,[4],39 u/L
same,ALBUMIN,[4],3.43 G/DL
same,ALKALINE PHOSPHATASE,[4],357.33 u/L
same,ASPARTATE AMINOTRANSFERASE,[4],60.33 u/L
same,BLOOD UREA NITROGEN,[4],13.33 mg/dL
same,CHLORIDE,[4],106.67 MEQ/L
same,CHOLESTEROL,[4],67.33 mg/dL
same,CREATINE PHOSPHOKINASE,[4],121.67 u/L
same,CREATININE,[4],0.47 mg/dL
same,GLUCOSE,[4],151.33 mg/dL
same,PHOSPHORUS,[4],9.77 mg/dL
same,POTASSIUM,[4],6.7 MEQ/L
same,SODIUM,[4],151.33 MEQ/L
same,TOTAL PROTEIN,[4],5.73 G/DL
same,BASOPHIL,[5],0%
same,EOSINOPHIL,[5],0%
same,ERYTHROCYTE COUNT,[5],6.96 x10E6/uL
same,HEMATOCRIT,[5],41.1%
same,HEMOGLOBIN,[5],15.27 G/DL
same,LEUKOCYTE COUNT,[5],8.67 x10E3/uL
same,LYMPHOCYTE,[5],76.67%
same,MEAN CORPUSCULAR HEMOGLOBIN,[5],21.9 pg
same,MEAN CORPUSCULAR HEMOGLOBIN CONCENTRATION,[5],37.13 G/DL
same,MEAN CORPUSCULAR VOLUME,[5],58.93 fL
same,MONOCYTE,[5],0%
same,NEUTROPHIL,[5],23.33%
same,PLATELET COUNT,[5],1235.33 x10E3/uL
same,ALANINE AMINOTRANSFERASE,[5],55.67 u/L
same,ALBUMIN,[5],3.63 G/DL
same,ALKALINE PHOSPHATASE,[5],246.33 u/L
same,ASPARTATE AMINOTRANSFERASE,[5],120.33 u/L
same,BLOOD UREA NITROGEN,[5],11.33 mg/dL
same,CHLORIDE,[5],108.67 MEQ/L
same,CHOLESTEROL,[5],105.33 mg/dL
same,CREATINE PHOSPHOKINASE,[5],122 u/L
same,CREATININE,[5],0.5 mg/dL
same,GLUCOSE,[5],140.67 mg/dL
same,PHOSPHORUS,[5],10.4 mg/dL
same,POTASSIUM,[5],6.3 MEQ/L
same,SODIUM,[5],156.33 MEQ/L
same,TOTAL PROTEIN,[5],5.9 G/DL
same,BASOPHIL,[6],0%
same,EOSINOPHIL,[6],0.33%
same,ERYTHROCYTE COUNT,[6],6.14 x10E6/uL
same,HEMATOCRIT,[6],37.1%
same,HEMOGLOBIN,[6],13.7 G/DL
same,LEUKOCYTE COUNT,[6],6.8 x10E3/uL
same,LYMPHOCYTE,[6],87.33%
same,MEAN CORPUSCULAR HEMOGLOBIN,[6],22.37 pg
same,MEAN CORPUSCULAR HEMOGLOBIN CONCENTRATION,[6],36.9 G/DL
same,MEAN CORPUSCULAR VOLUME,[6],60.57 fL
same,MONOCYTE,[6],0%
same,NEUTROPHIL,[6],12.33%
same,PLATELET COUNT,[6],1319.67 x10E3/uL
same,ALANINE AMINOTRANSFERASE,[6],37.67 u/L
same,ALBUMIN,[6],3.6 G/DL
same,ALKALINE PHOSPHATASE,[6],327.67 u/L
same,ASPARTATE AMINOTRANSFERASE,[6],56 u/L
same,BLOOD UREA NITROGEN,[6],12 mg/dL
same,CHLORIDE,[6],106.33 MEQ/L
same,CHOLESTEROL,[6],84.67 mg/dL
same,CREATINE PHOSPHOKINASE,[6],117.33 u/L
same,CREATININE,[6],0.53 mg/dL
same,GLUCOSE,[6],141 mg/dL
same,PHOSPHORUS,[6],10.63 mg/dL
same,POTASSIUM,[6],6.4 MEQ/L
same,SODIUM,[6],152 MEQ/L
same,TOTAL PROTEIN,[6],5.73 G/DL
